Patent US11214594B2, “Antimicrobial peptide having synergistic antibacterial effect with antibiotics on multidrug resistant bacteria, and use thereof” (priority 2016, dated 2022)
Where two headings read alike, the source gives them in different places. Where a SMILES comes first, the peptide text is derived from it. [ ]: non-standard residue; d: D form.

Key:
[1] = test system: MDRAB 12035; assay: MIC of antibiotic during combined treatment with antimicrobial peptide; format: cell-based, Acinetobacter baumannii
Procedure, shortened: (§1)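 Strains in MH medium at 2×10^6 CFU/ml were mixed with peptide diluted stepwise (2:1) from its MIC, then antibiotic dilutions in MH medium were added to give the antibiotic MIC. The reversed set-up, peptide titrated against fixed antibiotic, gave the peptide MIC.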

[2] = test system: E. coli; format: cell-based, Escherichia coli; settings: E. coli
Procedure, shortened: as §1

[3] = test system: MDREC 1229; format: cell-based, Escherichia coli
Procedure, shortened: as §1

[4] = test system: A. baumannii; assay: MIC of antimicrobial peptide during combined treatment with antibiotic; format: cell-based, Acinetobacter baumannii
Procedure, shortened: as §1

[5] = test system: MDRAB 12035; assay: as above; format: cell-based, Acinetobacter baumannii
Procedure, shortened: as §1

[6] = peptide treatment concentration 2 μg/ml
[7] = peptide treatment concentration 4 μg/ml
[8] = peptide treatment concentration 6 μg/ml
[9] = peptide treatment concentration 8 μg/ml
[10] = peptide treatment concentration 16 μg/ml
[11] = peptide treatment concentration 32 μg/ml
[12] = peptide treatment concentration 64 μg/ml
[13] = linezolid 64 μg/ml (Conc./MIC 1/8)
[14] = linezolid 512 μg/ml (Conc./MIC 1)
[15] = vancomycin 512 μg/ml (Conc./MIC 1/2)
[16] = vancomycin 1024 μg/ml (Conc./MIC 1)
[17] = erythromycin 4 μg/ml (Conc./MIC 1/8)
[18] = erythromycin 8 μg/ml (Conc./MIC 1/4)
[19] = erythromycin 16 μg/ml (Conc./MIC 1/2)
[20] = erythromycin 32 μg/ml (Conc./MIC 1)

Compound: CC[C@H](C)[C@H](NC(=O)[C@H](CCCCN)NC(=O)[C@H](Cc1c[nH]c2ccccc12)NC(=O)[C@@H](N)CCCNC(=N)N)C(=O)N[C@@H](Cc1ccccc1)C(=O)N[C@@H](CCCCN)C(=O)N[C@@H](CCCCN)C(=O)N[C@H](C(=O)N[C@H](CCCCN)C(=O)N[C@@H](CCCCN)C(=O)N[C@@H](CC(C)C)C(=O)N[C@@H](CC(C)C)C(=O)N[C@@H](Cc1c[nH]cn1)C(=O)N[C@@H](CCC(=O)O)C(=O)N[C@@H](Cc1ccccc1)C(=O)N[C@@H](CCCCN)C(=O)N[C@@H](CCCCN)C(=O)N[C@@H](Cc1ccccc1)C(N)=O)[C@@H](C)CC [PapMA-19, RWK IFK KIk KLL HEF KKF-NH2] (H-RWKIFKKI[dK]KLLHEFKKF-NH2; N-terminus assumed)
- Linezolid MIC during combined treatment with peptide [1, 6]: 128 µg/mL
- Vancomycin MIC during combined treatment with peptide [1, 6]: 128 µg/mL
- Erythromycin MIC during combined treatment with peptide [1, 7]: 8 µg/mL
- Linezolid MIC during combined treatment with peptide [1, 7]: 64 µg/mL
- Vancomycin MIC during combined treatment with peptide [1, 7]: 64 µg/mL
- Erythromycin MIC during combined treatment with peptide [1, 8]: 2 µg/mL
- Linezolid MIC during combined treatment with peptide [1, 8]: 16 µg/mL
- Vancomycin MIC during combined treatment with peptide [1, 8]: 32 µg/mL
- Erythromycin MIC during combined treatment with peptide [1, 9]: 0.5 µg/mL
- Linezolid MIC during combined treatment with peptide [1, 9]: 8 µg/mL
- Vancomycin MIC during combined treatment with peptide [1, 9]: 16 µg/mL
- Erythromycin MIC during combined treatment with peptide [1, 10]: 0.125 µg/mL
- Linezolid MIC during combined treatment with peptide [1, 10]: 4 µg/mL
- Vancomycin MIC during combined treatment with peptide [1, 10]: 8 µg/mL
- Erythromycin MIC during combined treatment with peptide [1, 11]: 0 µg/mL
- Linezolid MIC during combined treatment with peptide [1, 11]: 0 µg/mL
- Vancomycin MIC during combined treatment with peptide [1, 11]: 0 µg/mL
- Erythromycin MIC during combined treatment with peptide [1, 12]: 0 µg/mL
- Linezolid MIC during combined treatment with peptide [1, 12]: 0 µg/mL
- Vancomycin MIC during combined treatment with peptide [1, 12]: 0 µg/mL
- Peptide MIC ([2]; with Erythromycin […] (Conc./MIC 1)): 0 µg/mL
- Peptide MIC ([2]; with Linezolid […] (Conc./MIC 1)): 0 µg/mL
- Peptide MIC ([2]; with Vancomycin 1024 μg/ml (Conc./MIC 1)): 0 µg/mL
- Peptide MIC during treatment with antibiotic ([3]; erythromycin 32 μg/ml (Conc./MIC 1/8)): 2 µg/mL
- Peptide MIC during treatment with antibiotic ([3]; erythromycin 64 μg/ml (Conc./MIC 1/4)): 2 µg/mL
- Peptide MIC during treatment with antibiotic ([3]; erythromycin […] (Conc./MIC 1)): 0 µg/mL
- Peptide MIC during treatment with antibiotic ([3]; erythromycin […] (Conc./MIC 1/2)): 1 µg/mL
- Peptide MIC during treatment with antibiotic [3, 13]: 4 µg/mL
- Peptide MIC during treatment with antibiotic [3, 14]: 0 µg/mL
- Peptide MIC during treatment with antibiotic ([3]; linezolid […] (Conc./MIC 1/2)): 1 µg/mL
- Peptide MIC during treatment with antibiotic ([3]; linezolid […] (Conc./MIC 1/4)): 2 µg/mL
- Peptide MIC during treatment with antibiotic [3, 15]: 2 µg/mL
- Peptide MIC during treatment with antibiotic [3, 16]: 1 µg/mL
- Peptide MIC during treatment with antibiotic ([3]; vancomycin […] (Conc./MIC 1/4)): 4 µg/mL
- Peptide MIC during treatment with antibiotic ([3]; vancomycin […] (Conc./MIC 1/8)): 4 µg/mL
- Peptide MIC during treatment with antibiotic [4, 17]: 4 µg/mL
- Peptide MIC during treatment with antibiotic [4, 18]: 4 µg/mL
- Peptide MIC during treatment with antibiotic [4, 19]: 2 µg/mL
- Peptide MIC during treatment with antibiotic [4, 20]: 0 µg/mL
- Peptide MIC during treatment with antibiotic ([4]; linezolid 32 μg/ml (Conc./MIC 1/8)): 4 µg/mL
- Peptide MIC during treatment with antibiotic ([4]; linezolid 64 μg/ml (Conc./MIC 1/4)): 2 µg/mL
- Peptide MIC during treatment with antibiotic ([4]; linezolid […] (Conc./MIC 1)): 0 µg/mL
- Peptide MIC during treatment with antibiotic ([4]; linezolid […] (Conc./MIC 1/2)): 1 µg/mL
- Peptide MIC during treatment with antibiotic [4, 15]: 0.25 µg/mL
- Peptide MIC during treatment with antibiotic [4, 16]: 0 µg/mL
- Peptide MIC during treatment with antibiotic ([4]; vancomycin […] (Conc./MIC 1/4)): 0.5 µg/mL
- Peptide MIC during treatment with antibiotic ([4]; vancomycin […] (Conc./MIC 1/8)): 2 µg/mL
- Peptide MIC during treatment with erythromycin [5, 17]: 4 µg/mL
- Peptide MIC during treatment with erythromycin [5, 18]: 4 µg/mL
- Peptide MIC during treatment with erythromycin [5, 19]: 2 µg/mL
- Peptide MIC during treatment with erythromycin [5, 20]: 0 µg/mL
- Peptide MIC during treatment with linezolid [5, 13]: 4 µg/mL
- Peptide MIC during treatment with linezolid [5, 14]: 0 µg/mL
- Peptide MIC during treatment with linezolid ([5]; linezolid […] (Conc./MIC 1/2)): 1 µg/mL
- Peptide MIC during treatment with linezolid ([5]; linezolid […] (Conc./MIC 1/4)): 2 µg/mL
- Peptide MIC during treatment with vancomycin [5, 15]: 2 µg/mL
- Peptide MIC during treatment with vancomycin [5, 16]: 1 µg/mL
- Peptide MIC during treatment with vancomycin ([5]; vancomycin […] (Conc./MIC 1/4)): 2 µg/mL
- Peptide MIC during treatment with vancomycin ([5]; vancomycin […] (Conc./MIC 1/8)): 2 µg/mL
